Measured values reported in US20060122181A1, “Heteroaromatic pentacyclic compound and medicinal use thereof” (Japan Tobacco Inc., priority 2003, published 2006).
Structures can show the parent of a compound that is named as a salt.

Experiments:
[1] = system: male SD rats; assay: Effect of concomitant use with insulin on hypoglycemic activity; format: in vivo; conditions: 1 hour after vs before insulin
Description: For drawing blood, the animals were fasted after insulin administration. The blood thus taken was centrifuged and the glucose level was measured from the obtained plasma by the hexokinase method (glucose measurement kit). For evaluation, the percentage (%) of decrease in the glucose level of the test compound and insulin concomitant use group and insulin administration group one hour later relative to before insulin administration is shown.

[2] = system: female ob/ob mice; assay: Effect of concomitant use with glibenclamide on hypoglycemic activity; format: in vivo; conditions: relative to control
Description: (§1) To 10-week-old female ob/ob mice grouped according to glucose level were orally administered a 0.5% methyl cellulose suspension of the test compound {note: Example 4-2 (1 mg/kg)} (test compound-administered group), a 0.5% methyl cellulose suspension of glibenclamide (3 mg/kg) (glibenclamide-administered group), simultaneously both a 0.5% methyl cellulose suspension of the test compound and a 0.5% methyl cellulose suspension (glibenclamide 3 mg/kg) (test compound and glibenclamide concomitant use group), or a 0.5% methyl cellulose solution alone (control group).
Blood was drawn under fasting condition, which condition was started simultaneously with the administration by means of removing the feed. […] The blood thus taken was centrifuged and the glucose level was measured from the obtained plasma by the hexokinase method (glucose kit). For evaluation, the percentage (%) of decrease in the glucose level of each group other than the control group relative to the control group is shown.

[3] = system: female ob/ob mice; assay: Effect of concomitant use with metformin hydrochloride on hypoglycemic activity; format: in vivo; conditions: relative to control
Description: as §1, with “metformin chloride (30” for “glibenclamide (3”, “(metformin-administered” for “(glibenclamide-administered”, “(metformin chloride 30” for “(glibenclamide 3”, “metformin” for “glibenclamide”, “group). The ob/ob mice were fasted for 3 hours before administration.” for “group).”
Blood was drawn under fasting condition, which condition was started simultaneously with the administration by means of removing the feed. The blood was drawn under anesthesia from the orbital vein 3 and 5 hours after the administration. The blood thus taken was centrifuged and the glucose level was measured from the obtained plasma by the hexokinase method (glucose kit). For evaluation, the percentage (%) of decrease in the glucose level of each group other than the control group relative to the control group is shown.

[4] = system: female ob/ob mice; assay: Effect of concomitant use with voglibose on hypoglycemic activity (sucrose loading); format: in vivo; conditions: after sucrose loading 2 g/kg, relative to control
Description: as §1, with “9-week-old” for “10-week-old”, “voglibose (0.3” for “glibenclamide (3”, “(voglibose-administered” for “(glibenclamide-administered”, “(voglibose 0.3” for “(glibenclamide 3”, “voglibose” for “glibenclamide”, “group). One hour later, sucrose (2 g/5 mL/kg) was loaded.” for “group).”
Blood was drawn under fasting condition, which condition was started simultaneously with the loading by means of removing the feed. The blood was drawn under anesthesia from the orbital vein 1 and 2 hours after the sucrose loading. The blood thus taken was centrifuged and the glucose level was measured from the obtained plasma by the hexokinase method (glucose kit). For evaluation, the percentage (%) of decrease in the glucose level of each group other than the control group relative to the control group is shown.

[5] = system: male db/db mice; assay: Effect of concomitant use with tolbutamide on hypoglycemic activity; format: in vivo; conditions: relative to control
Description: To 10-week-old male db/db mice grouped according to glucose level were orally administered a 0.5% methyl cellulose suspension of the test compound {note: Example 4-5 (5 mg/kg)} (test compound-administered group), a 0.5% methyl cellulose suspension of tolbutamide (30 mg/kg) (tolbutamide-administered group), simultaneously both a 0.5% methyl cellulose suspension of the test compound and a 0.5% methyl cellulose suspension (tolbutamide 30 mg/kg) (test compound and tolbutamide concomitant use group), or a 0.5% methyl cellulose solution alone (control group).
Blood was drawn under fasting condition, which condition was started simultaneously with the administration by means of removing the feed. The blood was drawn under anesthesia from the orbital vein 5 hours after the administration. The blood thus taken was centrifuged and the glucose level was measured from the obtained plasma by the hexokinase method (glucose measurement kit). For evaluation, the percentage (%) of decrease in the glucose level of each group other than the control group relative to the control group is shown.

[6] = system: male db/db mice; assay: Effect of concomitant use with nateglinide on hypoglycemic activity; format: in vivo; conditions: relative to control
Description: To 10-week-old male db/db mice grouped according to glucose level were orally administered a 0.5% methyl cellulose suspension of the test compound {note: Example 4-5 (5 mg/kg)} (test compound-administered group), a 0.5% methyl cellulose suspension of nateglinide (30 mg/kg) (nateglinide-administered group), simultaneously both a 0.5% methyl cellulose suspension of the test compound and a 0.5% methyl cellulose suspension (nateglinide 30 mg/kg) (test compound and nateglinide concomitant use group), or a 0.5% methyl cellulose solution alone (control group).
Blood was drawn under fasting condition, which condition was started simultaneously with the administration by means of removing the feed. The blood was drawn under anesthesia from the orbital vein 2 hours after the administration. The blood thus taken was centrifuged and the glucose level was measured from the obtained plasma by the hexokinase method (glucose measurement kit). For evaluation, the percentage (%) of decrease in the glucose level of each group other than the control group relative to the control group is shown.

[7] = system: male db/db mice; assay: Effect of concomitant use with pioglitazone hydrochloride on hypoglycemic activity; format: in vivo; conditions: relative to control; for blood glucose decreasing rate (%) Day 3: 3 hours after administration
Description: To 8-week-old male db/db mice grouped according to full feed glucose level were orally administered a 0.5% methyl cellulose suspension of the test compound {note: Example 4-5 (10 mg/kg)} (test compound-administered group), a 0.5% methyl cellulose suspension of Pioglitazone hydrochloride (3 mg/kg) (Pioglitazone-administered group), simultaneously both a 0.5% methyl cellulose suspension of the test compound and a 0.5% methyl cellulose suspension (Pioglitazone hydrochloride 3 mg/kg) (test compound and Pioglitazone concomitant use group), or a 0.5% methyl cellulose solution alone (control group), once a day for 3 days.
Blood was drawn under fasting condition, which condition was started simultaneously with the administration by means of removing the feed. The blood was drawn under anesthesia from the orbital vein on day 1 of administration and 3 hours after the administration on day 3. The blood thus taken was centrifuged and the glucose level was measured from the obtained plasma by the hexokinase method (glucose kit). For evaluation, the percentage (%) of decrease in the glucose level of each group other than the control group relative to the control group is shown.

[8] = test compound 1 mg/kg + glibenclamide 3 mg/kg oral
[9] = test compound 1 mg/kg oral alone
[10] = test compound 1 mg/kg + metformin chloride 30 mg/kg oral, ob/ob mice
[11] = test compound 1 mg/kg oral alone, ob/ob mice fasted 3 hours before administration
[12] = test compound 1 mg/kg + voglibose 0.3 mg/kg oral
[13] = test compound 5 mg/kg oral alone
[14] = test compound 10 mg/kg + Pioglitazone hydrochloride 3 mg/kg oral once a day
[15] = test compound 10 mg/kg oral once a day alone
[16] = Pioglitazone hydrochloride 3 mg/kg oral once a day alone

CCCC(CCC)c1ccc(CN(C)c2ccc(-c3csc(CN(CC(=O)[O-])Cc4ccccc4)n3)cc2)cc1.[Na+] [Example 3-40]
blood glucose decreasing rate (%) Day of start of administration ([1]; test compound 30 mg/kg oral once a day + insulin 0.6 U/kg s.c. 3 hours later): 43%
blood glucose decreasing rate (%) Day 8 ([1]; test compound 30 mg/kg oral once a day for 8 days + insulin 0.6 U/kg s.c.): 36%

CCCC(CCC)c1ccc(OCc2ccc(-c3csc(COc4cncc(C(=O)O)c4)c3)cc2)cc1 [Example 4-2, 5-(4-{4-[4-(1-Propylbutyl)phenoxymethyl]phenyl}thiophen-2-ylmethoxy)nicotinic acid]
blood glucose decreasing rate (%) 3 hours later [2, 8]: 64%
blood glucose decreasing rate (%) 15 hours later [2, 8]: 60%
blood glucose decreasing rate (%) 3 hours later [2, 9]: 48%
blood glucose decreasing rate (%) 15 hours later [2, 9]: 20%
blood glucose decreasing rate (%) 3 hours later [3, 10]: 40%
blood glucose decreasing rate (%) 5 hours later [3, 10]: 51%
blood glucose decreasing rate (%) 3 hours later [3, 11]: 19%
blood glucose decreasing rate (%) 5 hours later [3, 11]: 20%
blood glucose decreasing rate (%) 1 hour later [4, 12]: 49%
blood glucose decreasing rate (%) 2 hours later [4, 12]: 54%
blood glucose decreasing rate (%) 1 hour later [4, 9]: 32%
blood glucose decreasing rate (%) 2 hours later [4, 9]: 40%

CCCC(CCC)c1ccc(OCc2ccc(-c3ccc(COc4cncc(C(=O)O)c4)s3)cc2)cc1 [Example 4-5]
blood glucose decreasing rate (%) 5 hours later ([5]; test compound 5 mg/kg + tolbutamide 30 mg/kg oral): 30%
blood glucose decreasing rate (%) 5 hours later [5, 13]: 26%
blood glucose decreasing rate (%) 2 hours later ([6]; test compound 5 mg/kg + nateglinide 30 mg/kg oral): 19%
blood glucose decreasing rate (%) 2 hours later [6, 13]: 11%
blood glucose decreasing rate (%) Day 3 [7, 14]: 48%
blood glucose decreasing rate (%) Day of start of administration [7, 14]: 30%
blood glucose decreasing rate (%) Day 3 [7, 15]: 32%
blood glucose decreasing rate (%) Day of start of administration [7, 15]: 24%
melting point: 153 to 155 °C

CC(C)[C@H]1CC[C@H](C(=O)N[C@H](Cc2ccccc2)C(=O)O)CC1 [Nateglinide, nateglinide, reference compound]
blood glucose decreasing rate (%) 2 hours later ([6]; nateglinide 30 mg/kg oral alone): 5%

CCc1ccc(CCOc2ccc(CC3SC(=O)NC3=O)cc2)nc1 (stereo not drawn) [Pioglitazone, pioglitazone hydrochloride, reference compound]
blood glucose decreasing rate (%) Day 3 [7, 16]: 44%
blood glucose decreasing rate (%) Day of start of administration [7, 16]: 11%

CCCCNC(=O)NS(=O)(=O)c1ccc(C)cc1 [Tolbutamide, tolbutamide, reference compound]
blood glucose decreasing rate (%) 5 hours later ([5]; tolbutamide 30 mg/kg oral alone): 26%
